Measurements: US20250059182A1, “SOS1 INHIBITORS” (Mirati Therapeutics, Inc., priority 2021, published 2025)
Structures can show the parent of a compound that is named as a salt. Where two headings read alike, the source gives them in different places.

What was measured:
pERK in MKN1 cells = test: pERK inhibition, In-Cell Western (LI-COR Odyssey), MKN1 cells; format: cell-based; settings: Homo sapiens
In short: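 MKN1 cells were exposed for about 0.5–1 h at 37 °C to nine 3-fold dilutions starting at 10 µM. Cells were then fixed in formaldehyde, permeabilised with methanol, and immunostained for pERK and GAPDH with near-infrared secondary antibodies. GAPDH-normalised pERK signal relative to vehicle gave % inhibition, from which IC50 was fitted.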

[1] = target: T1, recombinant human SOS1 polypeptide (amino acids 560-1049) (Homo sapiens, UniProt Q07889); test: HTRF displacement assay: inhibition of labeled tracer binding to SOS1; settings: Table A1, Morrison equation for competitive binding
T1 construct: corresponding to amino acids 560-1049, expressed in E. Coli; made in house; host or cells: E. coli
T1 sequence (Q07889 560-1049): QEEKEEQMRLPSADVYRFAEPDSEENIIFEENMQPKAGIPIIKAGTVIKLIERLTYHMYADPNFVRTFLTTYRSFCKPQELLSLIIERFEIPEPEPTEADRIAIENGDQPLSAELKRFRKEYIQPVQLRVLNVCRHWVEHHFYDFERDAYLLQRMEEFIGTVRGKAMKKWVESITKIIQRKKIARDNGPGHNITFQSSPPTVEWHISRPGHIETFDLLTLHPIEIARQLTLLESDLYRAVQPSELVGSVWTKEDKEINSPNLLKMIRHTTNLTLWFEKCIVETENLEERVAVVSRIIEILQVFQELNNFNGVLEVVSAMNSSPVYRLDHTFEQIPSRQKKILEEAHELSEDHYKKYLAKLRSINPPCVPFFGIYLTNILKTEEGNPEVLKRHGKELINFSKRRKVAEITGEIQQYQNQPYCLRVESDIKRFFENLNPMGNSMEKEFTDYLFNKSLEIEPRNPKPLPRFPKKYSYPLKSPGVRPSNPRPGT
Experimental: The ability of a compound of Formula (I) to bind to SOS1 was measured using a HTRF displacement assay. […] After a 1-hour incubation at room temperature, the HTRF signal was measured using Clairostar plate reader (BMG Labtech) according to the manufacturer's instructions. Excitation filter EX-TR was used, and emission 1 was detected at 650-610 nm and emission 2 detected at 620-610 nm. The HTRF ratio was calculated using the formula: [emission 1/emission 2]*10000.
Background signals were calculated from well with a 10 μM inhibitor, known to inhibit 100% at that concentration. The background subtracted signals were converted to % binding relative to DMSO controls. Data were analyzed using XLFIT software (IDBS) using a Morrison equation for competitive binding and Ki's were generated compound of Formula (I).

[2] = MKN-1, read-out: IC50 (nM), pERK inhibition
[3] = MKN-1, Table B1, MKN1 or H358 cells (table does not say which), 0.5-1 hour incubation, read-out: IC50 (nM), pERK inhibition

Row | Structure (SMILES) | IC50 (pERK in MKN1 cells; [2]) [nM] | Ki [1] [nM] | IC50 (pERK in MKN1 cells; [3]) [nM]
1 | Cc1nnc(N[C@H](C)c2cccc(C(F)F)c2F)c2cc(N3CCC34CN(CCCF)C4)ncc12 [Example P-226, (R)-N-(1-(3-(difluoromethyl)-2-fluorophenyl)ethyl)-7-(6-(3-fluoropropyl)-1,6-diazaspiro[3.3]heptan-1-yl)-4-methylpyrido[3,4-d]pyridazin-1-amine formic acid salt] | 62.3 | 0.288 | 
2 | Cc1nnc(N[C@H](C)c2cccc(C(F)F)c2F)c2cc(N3CCN(CCCF)CC3)ncc12 [Example P-227, (R)-N-(1-(3-(difluoromethyl)-2-fluorophenyl)ethyl)-7-(4-(3-fluoropropyl)piperazin-1-yl)-4-methylpyrido[3,4-d]pyridazin-1-amine] |  | 0.396 | 223
3 | Cc1c(C#N)cccc1[C@@H](C)Nc1nnc(C)c2cnc(N3CCN(CCCF)CC3)cc12 [Example P-229, (R)-3-(1-((7-(4-(3-fluoropropyl)piperazin-1-yl)-4-methylpyrido[3,4-d]pyridazin-1-yl)amino)ethyl)-2-methylbenzonitrile] |  | 0.671 | 59.3
4 | Cc1c(C#N)cccc1[C@@H](C)Nc1nnc(C)c2cc(F)c(N3CCC34COC4)cc12 [Example P-230, (R)-3-(1-((6-fluoro-4-methyl-7-(6-oxa-1-azaspiro[3.3]heptan-1-yl)phthalazin-1-yl)amino)ethyl)-2-methylbenzonitrile] |  | 2.51 | 26
5 | Cc1c(C#N)cccc1[C@@H](C)Nc1nnc(C)c2cnc(N3CCC34COC4)cc12 [Example P-231, (R)-2-methyl-3-(1-((4-methyl-7-(6-oxa-1-azaspiro[3.3]heptan-1-yl)pyrido[3,4-d]pyridazin-1-yl)amino)ethyl)benzonitrile formic acid salt] | 4290 | 3.34 | 
6 | Cc1nnc(N[C@H](C)c2cccc(C(F)F)c2F)c2cc(N3CCC34COC4)c(F)cc12 [Example P-232, (R)-N-(1-(3-(difluoromethyl)-2-fluorophenyl)ethyl)-6-fluoro-4-methyl-7-(6-oxa-1-azaspiro[3.3]heptan-1-yl)phthalazin-1-amine] |  | 1.18 | 7130
7 | Cc1nnc(N[C@H](C)c2cccc(C(F)F)c2F)c2cc(N3CCC34COC4)ncc12 [Example P-233, (R)-N-(1-(3-(difluoromethyl)-2-fluorophenyl)ethyl)-4-methyl-7-(6-oxa-1-azaspiro[3.3]heptan-1-yl)pyrido[3,4-d]pyridazin-1-amine] |  | 2.75 | 18.8
8 | Cc1nnc(N[C@H](C)c2cccc(C(F)F)c2F)c2cc(N3CCC34CN(C)C4)c(F)cc12 [Example P-234, (R)-N-(1-(3-(difluoromethyl)-2-fluorophenyl)ethyl)-6-fluoro-4-methyl-7-(6-methyl-1,6-diazaspiro[3.3]heptan-1-yl)phthalazin-1-amine] |  | 0.416 | 50.2
9 | Cc1c(C#N)cccc1[C@@H](C)Nc1nnc(C)c2ccc(N3CCC34CN(C)C4)cc12 [Example P-235, (R)-2-methyl-3-(1-((4-methyl-7-(6-methyl-1,6-diazaspiro[3.3]heptan-1-yl)phthalazin-1-yl)amino)ethyl)benzonitrile formic acid salt] | 95.8 | 0.618 | 
10 | Cc1nnc(N[C@H](C)c2cccc(C(F)F)c2F)c2cc(N3CCC34CN(C)C4)ccc12 [Example P-236, (R)-N-(1-(3-(difluoromethyl)-2-fluorophenyl)ethyl)-4-methyl-7-(6-methyl-1,6-diazaspiro[3.3]heptan-1-yl)phthalazin-1-amine] |  | 0.596 | 42.1
11 | Cc1nnc(N[C@H](C)c2cccc(C(F)F)c2F)c2cc(N3CCC34CNC4)ncc12 [Example P-237, (R)-N-(1-(3-(difluoromethyl)-2-fluorophenyl)ethyl)-4-methyl-7-(1,6-diazaspiro[3.3]heptan-1-yl)pyrido[3,4-d]pyridazin-1-amine] |  | 0.515 | 182
12 | Cc1nnc(N[C@H](C)c2cccc(C(F)F)c2F)c2cc(N3CCC34CN(C)C4)ncc12 [Example P-238, (R)-N-(1-(3-(difluoromethyl)-2-fluorophenyl)ethyl)-4-methyl-7-(6-methyl-1,6-diazaspiro[3.3]heptan-1-yl)pyrido[3,4-d]pyridazin-1-amine] |  | 0.4 | 17.7
13 | Cc1nnc(N[C@H](C)c2cccc(C(F)F)c2F)c2cc(-c3ccc(=O)n(C)c3)ncc12 [Example P-239, (R)-5-(1-((1-(3-(difluoromethyl)-2-fluorophenyl)ethyl)amino)-4-methylpyrido[3,4-d]pyridazin-7-yl)-1-methylpyridin-2(1H)-one] |  | 15.1 | 606
